Like-named read-outs stand apart in the source and are kept apart here.
Tested on: NCIH929.1 cells
Assay: Cell viability assay for Table 2 (CellTiter-Glo 2.0, ATP quantification, 96 hr)
Type: cell-based
Excerpt: Cell Viability Assay for Table 2
CellTiter-Glo® 2.0 Assay was purchased from Promega (Madison, Wis., USA). NCIH929.1 cell line was purchased from ATCC (Manassas, Va., USA). Cell culture flasks and 384-well microplates were acquired from VWR (Radnor, Pa., USA).

[1] = 96 h, NCIH929.1 cell viability, 96 hr, top concentration 1 μM, 14 points half log titration, read-out: IC50
[2] = NCIH929.1 cell viability, 96 hr, top concentration 1 μM, 14 points half log titration, read-out: IC50

SMILES	IC50 [1] [nM]	also measured
O=C1CCC(N2C(=O)c3cccc4c(Cc5ccc(CN6CCOCC6=O)cc5)ccc2c34)C(=O)N1 (stereo not drawn) [Compound 197, 3-[2-oxo-6-[[4-[(3-oxomorpholin-4-yl)methyl]phenyl]methyl]benzo[cd]indol-1-yl]piperidine-2,6-dione]	< 1	–
CC1(n2cc(Cc3ccc4c5c(cccc35)C(=O)N4C3CCC(=O)NC3=O)cn2)CCCCC1 (stereo not drawn) [Compound 198, 3-[6-[[1-(1-methylcyclohexyl)pyrazol-4-yl]methyl]-2-oxo-benzo[cd]indol-1-yl]piperidine-2,6-dione]	< 1	–
N#CC1(CN2CCC(n3cc(Cc4ccc5c6c(cccc46)C(=O)N5C4CCC(=O)NC4=O)cn3)CC2)CC1 (stereo not drawn) [Compound 199, 1-[[4-[4-[[1-(2,6-dioxo-3-piperidyl)-2-oxo-benzo[cd]indol-6-yl]methyl]pyrazol-1-yl]-1-piperidyl]methyl]cyclopropanecarbonitrile]	< 1	–
CC1(CN2CCC(n3cc(Cc4ccc5c6c(cccc46)C(=O)N5C4CCC(=O)NC4=O)c(Cl)n3)CC2)CCC1 (stereo not drawn) [Compound 200, 3-[6-[[3-chloro-1-[1-[(1-methylcyclobutyl)methyl]-4-piperidyl]pyrazol-4-yl]methyl]-2-oxo-benzo[cd]indol-1-yl]piperidine-2,6-dione]	< 1	–
O=C1CCC(N2C(=O)c3cccc4c(Cc5cn(C6CCN(CC7(C(F)(F)F)CC7)CC6)nc5Cl)ccc2c34)C(=O)N1 (stereo not drawn) [Compound 201, 3-[6-[[3-chloro-1-[1-[[1-(trifluoromethyl)cyclopropyl]methyl]-4-piperidyl]pyrazol-4-yl]methyl]-2-oxo-benzo[cd]indol-1-yl]piperidine-2,6-dione]	–	IC50 (96 h): < 1 nM
O=C1CCC(N2C(=O)c3cccc4c(Cc5ccc(CN6CCN(S(=O)(=O)c7ccc(F)cc7)CC6)cc5)ccc2c34)C(=O)N1 (stereo not drawn) [Compound 202, 3-[6-[[4-[[4-(4-fluorophenyl)sulfonylpiperazin-1-yl]methyl]phenyl]methyl]-2-oxo-benzoindol-1-yl]piperidine-2,6-dione]	< 1	–
O=C1CCC(N2C(=O)c3cccc4c(Cc5ccc(CC6CCN(c7ccc(F)cc7)CC6)cc5)ccc2c34)C(=O)N1 (stereo not drawn) [Compound 203, 3-[6-[[4-[[1-(4-fluorophenyl)-4-piperidyl]methyl]phenyl]methyl]-2-oxo-benzo[cd]indol-1-yl]piperidine-2,6-dione]	< 1	–
O=C1CCC(N2C(=O)c3cccc4c(Cc5cnn(C6CCN(C(=O)C7(CO)CCC7)CC6)c5)ccc2c34)C(=O)N1 (stereo not drawn) [Compound 205, 3-[6-[[1-[1-[1-(hydroxymethyl)cyclobutanecarbonyl]-4-piperidyl]pyrazol-4-yl]methyl]-2-oxo-benzo[cd]indol-1-yl]piperidine-2,6-dione]	< 1	–
CC1(CN2CCC(n3nc(Cl)cc3Cc3ccc4c5c(cccc35)C(=O)N4C3CCC(=O)NC3=O)CC2)CCC1 (stereo not drawn) [Compound 206, 3-[6-[[5-chloro-2-[1-[(1-methylcyclobutyl)methyl]-4-piperidyl]pyrazol-3-yl]methyl]-2-oxo-benzo[cd]indol-1-yl]piperidine-2,6-dione]	< 1	–
N#Cc1ccc(N2CCN(Cc3ccn(Cc4ccc5c6c(cccc46)C(=O)N5C4CCC(=O)NC4=O)n3)CC2)c(F)c1 (stereo not drawn) [Compound 208, 4-(4-((1-((1-(2,6-dioxopiperidin-3-yl)-2-oxo-1,2-dihydrobenzo[cd]indol-6-yl)methyl)-1-H-pyrazol-3-yl)methyl)piperazin-1-yl)-3-fluorobenzonitrile]	< 1	–
N#Cc1ccc(N2CCN(Cc3ccnn3Cc3ccc4c5c(cccc35)C(=O)N4C3CCC(=O)NC3=O)CC2)c(F)c1 (stereo not drawn) [Compound 209, 4-(4-((1-((1-(2,6-dioxopiperidin-3-yl)-2-oxo-1,2-dihydrobenzo[cd]indol-6-yl)methyl)-1-H-pyrazol-5-yl)methyl)piperazin-1-yl)-3-fluorobenzonitrile]	< 100	–
O=C1CCC(N2C(=O)c3cccc4c(Cc5ccc(CN6CCN(c7ccccc7)CC6)cc5)ccc2c34)C(=O)N1 (stereo not drawn) [Compound 210, 3-(2-oxo-6-(4-((4-phenylpiperazin-1-yl)methyl)benzyl)benzo[cd]indol-1(2H)-yl)piperidine-2,6-dione]	< 1	–
CC1(n2cc(Cc3ccc4c5c(cccc35)C(=O)N4C3CCC(=O)NC3=O)nn2)CCN(C(=O)C2(C(F)(F)F)CC2)CC1 (stereo not drawn) [Compound 211, 3-(6-((1-(4-methyl-1-(1-(trifluoromethyl)cyclopropane-1-carbonyl)piperidin-4-yl)-1H-1,2,3-triazol-4-yl)methyl)-2-oxobenzo[cd]indol-1(2H)-yl)piperidine-2,6-dione]	< 1	–
CC(C)(C)OC1CCC(n2cc(Cc3ccc4c5c(cccc35)C(=O)N4C3CCC(=O)NC3=O)cn2)CC1 (stereo not drawn) [Compound 212, 3-[6-[[1-(4-tert-butoxycyclohexyl)pyrazol-4-yl]methyl]-2-oxo-benzo[cd]indol-1-yl]piperidine-2,6-dione]	< 1	–
CC(C)(C)OC1CCC(n2cc(Cc3ccc4c5c(cccc35)C(=O)N4C3CCC(=O)NC3=O)cn2)CC1 (stereo not drawn) [Compound 213, 3-[6-[[1-(4-tert-butoxycyclohexyl)pyrazol-4-yl]methyl]-2-oxo-benzo[cd]indol-1-yl]piperidine-2,6-dione]	–	IC50 [2]: < 1 nM
N#Cc1ccc(N2CCN(Cc3ccc(Cc4ccc5c6c(cccc46)C(=O)N5C4CCC(=O)NC4=O)cc3F)CC2)c(F)c1 (stereo not drawn) [Compound 214, 4-[4-[[4-[[1-(2,6-dioxo-3-piperidyl)-2-oxo-benzo[cd]indol-6-yl]methyl]-2-fluoro-phenyl]methyl]piperazin-1-yl]-3-fluoro-benzonitrile]	–	IC50 (96 h): < 1 nM
O=C1CCC(N2C(=O)c3cccc4c(Cc5ccc(CN6CCC7(CCCO7)CC6)cc5)ccc2c34)C(=O)N1 (stereo not drawn) [Compound 215, 3-(6-(4-((1-oxa-8-azaspiro[4.5]decan-8-yl)methyl)benzyl)-2-oxobenzo[cd]indol-1(2H)-yl)piperidine-2,6-dione]	< 1	–
O=C1CCC(N2C(=O)c3cccc4c(Cc5ccc(CN6CCOCC6)cc5)ccc2c34)C(=O)N1 (stereo not drawn) [Compound 218, 3-(6-(4-(morpholinomethyl)benzyl)-2-oxobenzo[cd]indol-1(2H)-yl)piperidine-2,6-dione]	< 1	–
O=C1CCC(N2C(=O)c3cccc4c(Cc5ccc(CN6CCC7(CCCO7)CC6)cc5)cnc2c34)C(=O)N1 (stereo not drawn) [Compound 222, 3-[23-[[4-(1-oxa-8-azaspiro[4.5]decan-8-ylmethyl)phenyl]methyl]-28-oxo-31,34-diazatricyclododeca-(2),1(21),7(23),22(24),25(31)-pentaen-34-yl]piperidine-2,6-dione]	< 1	–
O=C1CCC(N2C(=O)c3cccc4c(Cc5cnn(C6CCN(C7(C8CC8)CC7)CC6)c5)ccc2c34)C(=O)N1 (stereo not drawn) [Compound 223, 3-[6-[[1-[1-(1-cyclopropylcyclopropyl)-4-piperidyl]pyrazol-4-yl]methyl]-2-oxo-benzo[cd]indol-1-yl]piperidine-2,6-dione]	< 1	–
O=C1CCC(N2C(=O)c3cccc4c(Cc5ccc(CN6CCC7(CCCCC7)CC6)cc5)ccc2c34)C(=O)N1 (stereo not drawn) [Compound 224, 3-(6-(4-((3-azaspiro[5.5]undecan-3-yl)methyl)benzyl)-2-oxobenzo[cd]indol-1(2H)-yl)piperidine-2,6-dione]	< 1	–
O=C1CCC(N2C(=O)c3cccc4c(Cc5ccc(CN6CCC7(CCCC7)CC6)cc5)ccc2c34)C(=O)N1 (stereo not drawn) [Compound 225, 3-(6-(4-((8-azaspiro[4.5]decan-8-yl)methyl)benzyl)-2-oxobenzo[cd]indol-1(2H)-yl)piperidine-2,6-dione]	< 1	–
O=C1CCC(N2C(=O)c3cccc4c(Cc5ccc(CN6C7COCC6C7)cc5)ccc2c34)C(=O)N1 (stereo not drawn) [Compound 226, 3-(6-(4-((3-oxa-6-azabicyclo[3.1.1]heptan-6-yl)methyl)benzyl)-2-oxobenzo[cd]indol-1(2H)-yl)piperidine-2,6-dione]	–	IC50 [2]: < 1 nM
O=C1CCC(N2C(=O)c3cccc4c(Cc5ccc(CN6CCC(c7ccccc7)CC6)cc5)ccc2c34)C(=O)N1 (stereo not drawn) [Compound 227, 3-(2-oxo-6-(4-((4-phenylpiperidin-1-yl)methyl)benzyl)benzo[cd]indol-1(2H)-yl)piperidine-2,6-dione]	< 1	–
O=C1CCC(N2C(=O)c3cccc4c(Cc5ccc(CN6CCC7(CCCCO7)CC6)cc5)ccc2c34)C(=O)N1 (stereo not drawn) [Compound 228, 3-(6-(4-((1-oxa-9-azaspiro[5.5]undecan-9-yl)methyl)benzyl)-2-oxobenzo[cd]indol-1(2H)-yl)piperidine-2,6-dione]	< 1	–
CN(Cc1ccc(Cc2ccc3c4c(cccc24)C(=O)N3C2CCC(=O)NC2=O)cc1)c1ccccc1 (stereo not drawn) [Compound 229, 3-(6-(4-((methyl(phenyl)amino)methyl)benzyl)-2-oxobenzo[cd]indol-1(2H)-yl)piperidine-2,6-dione]	< 1	–
O=C1CCC(N2C(=O)c3cccc4c(Cc5ccc(CN6CC7(COC7)C6)cc5)ccc2c34)C(=O)N1 (stereo not drawn) [Compound 230, 3-(6-(4-((2-oxa-6-azaspiro[3.3)heptan-6-yl)methyl)benzyl)-2-oxobenzo[cd]indol-1(2H)-yl)piperidine-2,6-dione]	< 1	–
C[C@@H]1CN(Cc2ccc(Cc3ccc4c5c(cccc35)C(=O)N4C3CCC(=O)NC3=O)cc2)C[C@H](C)O1 (stereo partly drawn) [Compound 231, 3-(6-(4-(((2R,6S)-2,6-dimethylmorpholino)methyl)benzyl)-2-oxobenzo[cd]indol-1(2H)-yl)piperidine-2,6-dione]	< 1	–
CC(C)(O)C1CCN(Cc2ccc(Cc3ccc4c5c(cccc35)C(=O)N4C3CCC(=O)NC3=O)cc2)CC1 (stereo not drawn) [Compound 232, 3-(6-(4-((4-(2-hydroxypropan-2-yl)piperidin-1-yl)methyl)benzyl)-2-oxobenzo[cd]indol-1(2H)-yl)piperidine-2,6-dione]	< 1	–
CC1(n2cc(Cc3ccc4c5c(cccc35)C(=O)N4C3CCC(=O)NC3=O)cn2)CCN(S(=O)(=O)C2(C)CCC2)CC1 (stereo not drawn) [Compound 233, 3-[6-[[1-[4-methyl-1-(1-methylcyclobutyl)sulfonyl-4-piperidyl]pyrazol-4-yl]methyl]-2-oxo-benzo[cd]indol-1-yl]piperidine-2,6-dione]	< 1	–
